For test [1], the target named is Phosphatidylinositol 4,5-bisphosphate 3-kinase catalytic subunit alpha isoform (Homo sapiens) (UniProt P42336). Put plainly: Inhibition of PIK3CA (unknown origin) assessed as residual activity at 1000 nM by KINOMEscan analysis relative to control.
Test [2] has as its target T1, Serine/threonine-protein kinase Nek5 (Homo sapiens) (UniProt Q6P3R8).
T1 sequence (whole entry): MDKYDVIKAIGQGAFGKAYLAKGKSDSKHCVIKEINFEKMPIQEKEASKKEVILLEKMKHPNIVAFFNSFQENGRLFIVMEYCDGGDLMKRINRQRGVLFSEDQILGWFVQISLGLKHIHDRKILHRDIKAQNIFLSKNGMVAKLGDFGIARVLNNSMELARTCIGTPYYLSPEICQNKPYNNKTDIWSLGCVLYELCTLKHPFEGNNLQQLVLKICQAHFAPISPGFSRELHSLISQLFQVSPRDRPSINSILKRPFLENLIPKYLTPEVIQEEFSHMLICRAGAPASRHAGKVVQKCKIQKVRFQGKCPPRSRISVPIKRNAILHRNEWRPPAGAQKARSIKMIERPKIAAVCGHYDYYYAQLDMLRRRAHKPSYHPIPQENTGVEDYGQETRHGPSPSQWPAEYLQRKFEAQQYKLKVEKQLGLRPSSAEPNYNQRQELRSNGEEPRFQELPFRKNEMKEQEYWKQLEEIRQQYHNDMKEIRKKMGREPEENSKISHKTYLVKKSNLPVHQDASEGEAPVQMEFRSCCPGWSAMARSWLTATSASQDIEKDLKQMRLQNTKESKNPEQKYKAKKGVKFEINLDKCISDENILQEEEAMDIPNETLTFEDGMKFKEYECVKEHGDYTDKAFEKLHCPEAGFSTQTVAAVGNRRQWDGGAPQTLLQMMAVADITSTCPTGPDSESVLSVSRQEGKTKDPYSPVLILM
As to the kind of experiment: Inhibition of NEK5 (unknown origin) assessed as residual activity at 1000 nM by KINOMEscan analysis relative to control.

The target of test [3] is Serine/threonine-protein kinase 4 (Homo sapiens) (UniProt Q13043). As to the kind of experiment: Inhibition of MST1 (unknown origin) assessed as residual activity at 1000 nM by KINOMEscan analysis relative to control.
For test [4], the target named is Calcium/calmodulin-dependent protein kinase type II subunit gamma (Homo sapiens) (UniProt Q13555). As to the kind of experiment: Inhibition of CAMK2G (unknown origin) assessed as residual activity at 1000 nM by KINOMEscan analysis relative to control.
Test [5] concerns the target Dual specificity mitogen-activated protein kinase kinase 2 (Homo sapiens) (UniProt P36507). Put plainly: Inhibition of MEK2 (unknown origin) assessed as residual activity at 1000 nM by KINOMEscan analysis relative to control.
The target of test [6] is G protein-coupled receptor kinase 4 (Homo sapiens) (UniProt P32298). As to the kind of experiment: Inhibition of GRK4 (unknown origin) assessed as residual activity at 1000 nM by KINOMEscan analysis relative to control.
For test [7], the target named is Dual specificity protein kinase CLK3 (Homo sapiens) (UniProt P49761). Put plainly: Inhibition of CLK3 (unknown origin) assessed as residual activity at 1000 nM by KINOMEscan analysis relative to control.
The target in test [8] is T2, Mitogen-activated protein kinase kinase kinase kinase 2 (Homo sapiens) (UniProt Q12851).
T2 sequence (whole entry): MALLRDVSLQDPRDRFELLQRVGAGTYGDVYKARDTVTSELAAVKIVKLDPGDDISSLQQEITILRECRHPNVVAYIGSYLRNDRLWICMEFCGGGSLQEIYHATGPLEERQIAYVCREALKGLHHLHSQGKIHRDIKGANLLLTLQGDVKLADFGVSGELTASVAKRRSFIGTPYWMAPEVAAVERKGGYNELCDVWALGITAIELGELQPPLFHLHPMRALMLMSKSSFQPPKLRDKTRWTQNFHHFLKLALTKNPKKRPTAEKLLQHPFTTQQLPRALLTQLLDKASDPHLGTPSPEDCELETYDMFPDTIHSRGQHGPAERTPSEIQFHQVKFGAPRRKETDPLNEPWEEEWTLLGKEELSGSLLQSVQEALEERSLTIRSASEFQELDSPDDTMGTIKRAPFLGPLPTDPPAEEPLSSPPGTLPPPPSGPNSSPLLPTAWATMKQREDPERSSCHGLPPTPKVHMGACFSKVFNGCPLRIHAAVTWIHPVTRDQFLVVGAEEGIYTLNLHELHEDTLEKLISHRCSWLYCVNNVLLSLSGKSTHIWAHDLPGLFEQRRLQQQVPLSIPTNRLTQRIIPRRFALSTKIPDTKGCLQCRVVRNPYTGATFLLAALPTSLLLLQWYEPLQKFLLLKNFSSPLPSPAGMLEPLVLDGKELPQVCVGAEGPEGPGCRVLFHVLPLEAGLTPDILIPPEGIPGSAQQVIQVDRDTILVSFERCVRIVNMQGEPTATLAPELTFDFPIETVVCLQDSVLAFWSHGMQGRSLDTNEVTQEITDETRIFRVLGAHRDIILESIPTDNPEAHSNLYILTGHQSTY
Put plainly: Inhibition of MAP4K2 (unknown origin) assessed as residual activity at 1000 nM by KINOMEscan analysis relative to control.

The target of test [9] is Insulin receptor-related protein (Homo sapiens) (UniProt P14616). As to the kind of experiment: Inhibition of INSRR (unknown origin) assessed as residual activity at 1000 nM by KINOMEscan analysis relative to control.
Another test has as its target GTPase KRas (Homo sapiens, UniProt P01116, G12C). As to the kind of experiment: Inhibition of N-terminal GST-tagged recombinant human KRAS G12C mutant (1 to 169 residues) expressed in Escherichia coli assessed as reduction in intrinsic GTP exchange preincubated for 10 mins with KRAS followed by SOS1 addition measured after 30 mins in presence of EDA-GTP-DY-647P1 by HTRF analysis. On the technique in general: In TR-FRET formats the signal depends on donor and acceptor labels being close together.

Structures are written as SMILES.

In general, IC50 refers to the concentration needed to halve the response being measured.

For `COc1cc2nc(C)nc(N[C@H](C)c3cccc(-c4cn[nH]c4)c3)c2cc1OC`, the Activity in [1] is 96%; in test [2] it was 90%; in [3], 97%; in [4], 83%; in test [5] it was 63%; in [6], 95%. Also, the Activity in [7] was determined as 81%; in [8], 100%; in test [9], 97%.
For the molecule `COc1cc2ncnc(N[C@H](C)c3cccc4ccccc34)c2cc1OC`, the Activity came to 73% in test [1]; 85% in test [2]; 99% in test [3]; 92% in test [4]; 91% in [5]; 100% in [6]. The Activity was 100% in test [7], 78% in [8] and 93% in test [9]. Also, at GTPase KRas, the IC50 is more than 20 µM.
As for `COc1cc2nc(C)nc(NC(C)c3ccc(-c4cnc5n4CCC5)s3)c2cc1OC` (stereo not given), on GTPase KRas, the IC50 is more than 20 µM.

The values above are taken from ChEMBL document CHEMBL5678818, “Discovery of potent SOS1 inhibitors that block RAS activation via disruption of the RAS-SOS1 interaction” (Proc Natl Acad Sci U S A, 2019).
